# Source: ChEMBL document CHEMBL3045453, “Novel malyngamide structural analogs: synthesis and biological evaluation” (Med Chem Res, 2013)
# Key:
# Assay type in all cases: functional, cell-based
# SF-295 = assay: Cytotoxicity against Homo sapiens (human) SF295 cells assessed as growth inhibition after 48 hr by trypan blue exclusion assay; settings: SF-295, 48 h
# PC-3 = assay: Cytotoxicity against Homo sapiens (human) PC3 cells assessed as growth inhibition after 48 hr by trypan blue exclusion assay; settings: PC-3, 48 h
# SK-N-SH = assay: Cytotoxicity against Homo sapiens (human) SK-N-SH cells assessed as growth inhibition after 48 hr by trypan blue exclusion assay
# HOP-62 = assay: Cytotoxicity against Homo sapiens (human) HOP62 cells assessed as growth inhibition after 48 hr by trypan blue exclusion assay; settings: HOP-62, 48 h
# IMR-32 = assay: Cytotoxicity against Homo sapiens (human) IMR32 cells assessed as growth inhibition after 48 hr by trypan blue exclusion assay; settings: IMR-32, 48 h
# HeLa = assay: Cytotoxicity against Homo sapiens (human) HeLa cells assessed as growth inhibition after 48 hr by trypan blue exclusion assay
# [1] = Cytotoxicity against Homo sapiens (human) 502713 cells assessed as growth inhibition after 48 hr by trypan blue exclusion assay; settings: Homo sapiens, 502713, 48 h
# SW-620 = assay: Cytotoxicity against Homo sapiens (human) SW620 cells assessed as growth inhibition after 48 hr by trypan blue exclusion assay; settings: SW-620, 48 h
SMILES,IC50 (SF-295) [µM],IC50 (PC-3) [µM],IC50 (SK-N-SH) [µM],IC50 (HOP-62) [µM],IC50 (IMR-32) [µM],IC50 (HeLa) [µM],IC50 [1] [µM],IC50 (SW-620) [µM]
CCCCCCC[C@@H](C/C=C/CCC(=O)NCc1ccc(C(F)(F)F)cc1)OC,> 100,> 100,62.9,> 100,> 100,> 100,29.8,> 100
CCCCCCC[C@@H](C/C=C/CCC(=O)Nc1ccc(Br)cc1)OC,> 100,> 100,65.7,174,> 100,> 100,> 100,> 100
CCCCCCC[C@@H](C/C=C/CCC(=O)NCc1ccccc1)OC,> 100,> 100,> 100,> 100,> 100,> 100,> 100,> 100
CCCCCCC[C@@H](C/C=C/CCC(=O)NCc1ccc(OC)cc1)OC,> 100,> 100,> 100,> 100,> 100,> 100,> 100,> 100
CCCCCCC[C@H](O)C/C=C/CCC(=O)NCC(C)C,> 100,> 100,> 100,> 100,> 100,> 100,> 100,> 100
CCCCCCC[C@@H](C/C=C/CCC(=O)NCc1ccc(F)cc1)OC,> 100,> 100,> 100,> 100,> 100,> 100,> 100,> 100
CCCCCCC[C@@H](C/C=C/CCC(=O)NCC(C)C)OC,> 100,> 100,> 100,> 100,> 100,> 100,> 100,> 100
CCCCCCC[C@H](C/C=C/CCC(=O)N1CCCC1)OC,> 100,> 100,> 100,> 100,> 100,> 100,> 100,> 100
CCCCCCC[C@H](O)C/C=C/CCC(=O)N1CCCCC1,> 100,> 100,100,> 100,> 100,> 100,> 100,> 100
CCCCCCC[C@H](O)C/C=C/CCC(=O)N1CCCC1,> 100,> 100,120,> 100,> 100,> 100,> 100,> 100
CCCCCCC[C@@H](C/C=C/CCC(=O)Nc1c(OC)cc(Cl)cc1OC)OC,> 100,> 100,> 100,> 100,> 100,> 100,64.1,> 100
CCCCCCC[C@H](O)C/C=C/CCC(=O)NCCc1ccccc1,> 100,> 100,164,> 100,> 100,> 100,> 100,> 100
CCCCCCC[C@@H](C/C=C/CCC(=O)N1CCCCC1)OC,> 100,> 100,> 100,> 100,> 100,> 100,> 100,> 100
CCCCCCC[C@@H](C/C=C/CCC(=O)Nc1ccc(Cl)cc1)OC,> 100,> 100,72.9,> 100,> 100,> 100,> 100,> 100
"CCCCCCC[C@H](C/C=C/CCC(=O)NCCc1ccccc1)OC [PHENETHYL(7R,4E)-METHOXYTETRADECENAMIDE]",> 100,> 100,95.8,> 100,> 100,> 100,> 100,> 100
CCCCCCC[C@@H](C/C=C/CCC(=O)N1CCCC1)OC,> 100,> 100,> 100,> 100,> 100,> 100,> 100,> 100
CCCCCCC[C@@H](C/C=C/CCC(=O)NCCc1ccccc1)OC [HERMITAMIDE A],> 100,> 100,> 100,> 100,> 100,> 100,> 100,> 100
CCCCCCC[C@H](C/C=C/CCC(=O)N1CCCCC1)OC,> 100,> 100,118,> 100,> 100,> 100,> 100,> 100
CCCCCCC[C@H](C/C=C/CCC(=O)NCC(C)C)OC,> 100,> 100,> 100,> 100,> 100,> 100,> 100,> 100
